This passage reports IC50 results from US11566007B2, “Ras inhibitors” (Revolution Medicines, Inc., priority 2019, dated 2023).

The target of one test is KRAS G12D (Homo sapiens (Human), UniProt P01116+P62937, G12D). Briefly: Ras-Raf (BRAF RBD) disruption / FRET / MOA assay, KRAS G12D. It counts as biochemical. Particulars: Ras-Raf disruption/FRET/MOA assay; class symbols; read-out: KRAS G12D FRET data IC50. As for the experimental part:
(§1) The purpose of this biochemical assay is to measure the ability of test compounds to facilitate ternary complex formation between a nucleotide-loaded Ras isoform and cyclophilin A; the resulting ternary complex disrupts binding to a BRAF^RBD construct, inhibiting Ras signaling through a RAF effector.
(§2) Compound is present in plate wells as a 10-point 3-fold dilution series starting at a final concentration of 30 μM. After incubation at 25° C. for 3 hours, a mixture of Anti-His Eu-W1024 and anti-GST allophycocyanin is then added to assay sample wells at final concentrations of 10 nM and 50 nM, respectively, and the reaction incubated for an additional 1.5 hours. […] Compounds that facilitate disruption of a Ras:RAF complex are identified as those eliciting a decrease in the TR-FRET ratio relative to DMSO control wells.
(§3) This protocol may also be executed substituting other Ras proteins or nucleotides.
(§4) The purpose of this biochemical assay was to measure the ability of test compounds to facilitate ternary complex formation between a nucleotide-loaded K-Ras isoform and Cyclophilin A; the resulting ternary complex disrupts binding to a BRAF^RBD construct, inhibiting K-Ras signaling through a RAF effector. Data is reported as IC50 values.
(§5) Compound was present in plate wells as a 10-point 3-fold dilution series starting at a final concentration of 30 μM. After incubation at 25° C. for 3 hours, a mixture of Anti-His Eu-W1024 and anti-GST allophycocyanin was then added to assay sample wells at final concentrations of 10 nM and 50 nM, respectively, and the reaction incubated for an additional 1.5 hours. […] Compounds that facilitate disruption of a K-Ras:RAF complex were identified as those eliciting a decrease in the TR-FRET ratio relative to DMSO control wells.

The target in the next test is KRAS G12S (Homo sapiens (Human), UniProt P01116+P62937, G12S). The test can be described thus: Ras-Raf (BRAF RBD) disruption / FRET / MOA assay, KRAS G12S. The format is biochemical. Particulars: Ras-Raf disruption/FRET/MOA assay; class symbols; read-out: KRAS G12S FRET data IC50. The procedure:
as §1, §2, §3, §4, §5

Sequence of KRAS G12S (P01116-2 other isoform, or with tags, fused parts or gaps G12S): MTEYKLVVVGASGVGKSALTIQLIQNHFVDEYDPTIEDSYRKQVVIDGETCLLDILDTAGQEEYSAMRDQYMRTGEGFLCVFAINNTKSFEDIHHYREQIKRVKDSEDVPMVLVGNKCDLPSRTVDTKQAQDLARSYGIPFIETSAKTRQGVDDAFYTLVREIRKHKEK
Sequence of KRAS G12S (P62937 whole entry): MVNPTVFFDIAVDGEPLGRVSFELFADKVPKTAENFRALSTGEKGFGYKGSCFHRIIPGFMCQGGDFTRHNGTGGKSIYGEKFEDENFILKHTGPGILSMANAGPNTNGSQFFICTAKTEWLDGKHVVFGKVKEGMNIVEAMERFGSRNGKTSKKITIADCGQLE
Sequence of KRAS G12D (P01116-2 other isoform, or with tags, fused parts or gaps G12D): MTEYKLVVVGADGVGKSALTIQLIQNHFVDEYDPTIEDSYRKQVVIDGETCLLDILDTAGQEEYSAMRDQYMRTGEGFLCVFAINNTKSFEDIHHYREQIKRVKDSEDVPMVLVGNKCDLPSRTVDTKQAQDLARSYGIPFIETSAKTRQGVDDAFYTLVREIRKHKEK
Sequence of KRAS G12D (P62937 whole entry, canonical isoform): as the sequence (P62937 whole entry) above

As usually defined, the IC50 is the concentration that inhibits the measured activity by half. `C=CC(=O)N1CC[C@H](C(=O)N(C)[C@H](C(=O)N[C@H]2Cc3cc(N)cc(c3)-c3ccc4c(c3)c(c(-c3ccccc3COC)n4CC)CC(C)(C)COC(=O)[C@@H]3CCCN(N3)C2=O)C(C)C)C1` [Example A042]: the IC50 at KRAS G12D and on KRAS G12S was > 10 µM each time.

In the case of `C=CC(=O)N1C[C@H](C)[C@H](C(=O)N(C)[C@H](C(=O)N[C@H]2Cc3cc(O)cc(c3)-c3ccc4c(c3)c(c(-c3ccccc3CN(C)C)n4CC)CC(C)(C)COC(=O)[C@@H]3CCCN(N3)C2=O)C2CCCC2)C1` [Example A043], the IC50 at KRAS G12D was in the range of 1 to 10 µM; at KRAS G12S, 0.1 to 1 µM.

Consider `C=CC(=O)N1CC[C@H](C(=O)N(C)[C@H](C(=O)N[C@H]2Cc3cc(O)cc(c3)-c3ccc4c(c3)c(c(-c3cccnc3COCC)n4CC)CC(C)(C)COC(=O)[C@@H]3CCCN(N3)C2=O)C(C)C)C1` [Example A044], for which the figures for the IC50 at KRAS G12D and at KRAS G12S were 1 to 10 µM and 0.1 to 1 µM, respectively.

In the case of `CCn1c(-c2ccccc2CN(C)C)c2c3cc(ccc31)-c1cc(O)cc(c1)C[C@H](NC(=O)[C@H](C(C)C)N(C)C(=O)c1ccc(NC(=O)/C=C/CN(C)C)cn1)C(=O)N1CCC[C@H](N1)C(=O)OCC(C)(C)C2` [Example A046], the IC50 was 1 to 10 µM on KRAS G12D and > 10 µM at KRAS G12S.

For `CCn1c(-c2ccccc2CN(C)C)c2c3cc(ccc31)-c1cc(O)cc(c1)C[C@H](NC(=O)[C@H](C(C)C)N(C)C(=O)c1ccc(NC(=O)/C=C/CN(C)C)cc1)C(=O)N1CCC[C@H](N1)C(=O)OCC(C)(C)C2` [Example A049], the IC50 on KRAS G12D and on KRAS G12S was > 10 µM in each case.

As to `C=CC(=O)N1CC[C@H](C(=O)N(C)[C@H](C(=O)N[C@H]2Cc3cc(O)cc(c3)-c3ccc4c(c3)c(c(-c3ccc(CN(C)C)cc3COC)n4CC)CC(C)(C)COC(=O)[C@@H]3CCCN(N3)C2=O)C(C)C)C1` [Example A051], the IC50 on KRAS G12D lay in the range of 1 to 10 µM; on KRAS G12S, 0.1 to 1 µM.

In the case of `C=CC(=O)N1C[C@H](C)[C@H](C(=O)N(C)[C@H](C(=O)N[C@H]2Cc3cc(O)cc(c3)-c3ccc4c(c3)c(c(-c3ccccc3CN(C)C)n4CC)CC(C)(C)COC(=O)[C@@H]3CCCN(N3)C2=O)C(C)C)C1` [Example A052], the IC50 at KRAS G12D lay within 1 to 10 µM; on KRAS G12S, 0.1 to 1 µM.

For `C=CC(=O)N1CC[C@H](C(=O)N(C)[C@H](C(=O)N[C@H]2Cc3cc(O)cc(c3)-c3ccc4c(c3)c(c(-c3cccnc3COC)n4CC)CC(C)(C)COC(=O)[C@@H]3CCCN(N3)C2=O)C2CCCC2)C1` [Example A055], the IC50 was in the range of 1 to 10 µM at KRAS G12D and 0.1 to 1 µM on KRAS G12S.

For `C=CC(=O)N1C[C@H](C)[C@H](C(=O)N(C)[C@H](C(=O)N[C@H]2Cc3cc(O)cc(c3)-c3ccc4c(c3)c(c(-c3cccnc3COC)n4CC)CC(C)(C)COC(=O)[C@@H]3CCCN(N3)C2=O)C(C)C)C1` [Example A056], the IC50 on KRAS G12D was 1 to 10 µM; at KRAS G12S, 0.1 to 1 µM.

Take `C=CC(=O)N1C[C@H](C)[C@H](C(=O)N(C)[C@H](C(=O)N[C@H]2Cc3cc(O)cc(c3)-c3ccc4c(c3)c(c(-c3cccnc3COC)n4CC)CC(C)(C)COC(=O)[C@@H]3CCCN(N3)C2=O)C2CCCC2)C1` [Example A057]: the IC50 on KRAS G12D was 1 to 10 µM; on KRAS G12S, 0.1 to 1 µM.

As for `C=CC(=O)N1CC[C@H](C(=O)N(C)[C@H](C(=O)N[C@H]2Cc3cc(O)cc(c3)-c3ccc4c(c3)c(c(C3=C(COC)COCC3)n4CC)CC(C)(C)COC(=O)[C@@H]3CCCN(N3)C2=O)C(C)C)C1` [Example A058], the IC50 on KRAS G12D lay within 1 to 10 µM; on KRAS G12S, 0.1 to 1 µM.

In the case of `C=CC(=O)N1CC[C@H](C(=O)N(C)[C@H](C(=O)N[C@H]2Cc3cc(OC(C)=O)cc(c3)-c3ccc4c(c3)c(c(-c3ccccc3CN(C)C)n4CC)CC(C)(C)COC(=O)[C@@H]3CCCN(N3)C2=O)C(C)C)C1` [Example A059], the IC50 on KRAS G12D and at KRAS G12S was > 10 µM in each case.

Take `C=CC(=O)N1CC[C@H](C(=O)N(C)[C@H](C(=O)N[C@H]2Cc3cc(O)cc(c3)-c3ccc4c(c3)c(c(-c3cccnc3COC)n4C)CC(C)(C)COC(=O)[C@@H]3CCCN(N3)C2=O)C(C)C)C1` [Example A066]: the IC50 is > 10 µM on KRAS G12D and 1 to 10 µM at KRAS G12S.

As for `C=CC(=O)N1CC[C@@]2(CCN([C@H](C(=O)N[C@H]3Cc4cc(O)cc(c4)-c4ccc5c(c4)c(c(-c4ccccc4CCOC)n5CC)CC(C)(C)COC(=O)[C@@H]4CCCN(N4)C3=O)C(C)C)C2=O)C1` [Example A068], the IC50 is > 10 µM at KRAS G12D and 1 to 10 µM at KRAS G12S.

Take `C=CC(=O)N1CC[C@H](C(=O)N(C)[C@H](C(=O)N[C@H]2Cc3cc(O)cc(c3)-c3ccc4c(c3)c(c(-c3cncc(CN(C)C)c3)n4CC)CC(C)(C)COC(=O)[C@@H]3CCCN(N3)C2=O)C(C)C)C1` [Example A073]: the IC50 on KRAS G12D is > 10 µM; on KRAS G12S it was 1 to 10 µM.

Consider `C=CC(=O)N1CC[C@H](C(=O)N(C)[C@H](C(=O)N[C@H]2Cc3cc(OC(=O)N(C)CC(=O)O)cc(c3)-c3ccc4c(c3)c(c(-c3ccccc3CCOC)n4CC)CC(C)(C)COC(=O)[C@@H]3CCCN(N3)C2=O)C(C)C)C1` [Example A078], for which the IC50 at KRAS G12D and on KRAS G12S was > 10 µM throughout.

For `CCn1c(-c2ccccc2COC)c2c3cc(ccc31)-c1cc(O)cc(c1)C[C@H](NC(=O)[C@H](C(C)C)N(C)C(=O)[C@H]1CCN(C(=O)/C=C/CN(C)C)C1)C(=O)N1CCC[C@H](N1)C(=O)OCC(C)(C)C2` [Example A079], the IC50 at KRAS G12D fell in the range of 1 to 10 µM; at KRAS G12S, 0.1 to 1 µM.

Take `C=CC(=O)N1CC[C@H](C(=O)N(C)[C@H](C(=O)N[C@H]2Cc3cc(O)cc(c3)-c3ccc4c(c3)c(c(-c3c(CCOC)cccc3OC)n4CC)CC(C)(C)COC(=O)[C@@H]3CCCN(N3)C2=O)C(C)C)C1` [Example A080]: the IC50 on KRAS G12D and at KRAS G12S was > 10 µM each time.

On to `C=CC(=O)N1CC[C@H](C(=O)N(C)[C@H](C(=O)N[C@H]2Cc3cc(O)cc(c3)-c3ccc4c(c3)c(c(-c3cncc(CCN(C)C)c3)n4CC)CC(C)(C)COC(=O)[C@@H]3CCCN(N3)C2=O)C(C)C)C1` [Example A081], for which the IC50 was > 10 µM on KRAS G12D and 1 to 10 µM at KRAS G12S.

In the case of `C=CC(=O)N1CC[C@H](C(=O)N(C)[C@H](C(=O)N[C@H]2Cc3cc(O)cc(c3)-c3ccc4c(c3)c(c(-c3ncccc3COC)n4CC)CC(C)(C)COC(=O)[C@@H]3CCCN(N3)C2=O)C(C)C)C1` [Example A084], the IC50 at KRAS G12D and at KRAS G12S was > 10 µM in each case.

Regarding `C=CC(=O)N1CC[C@H](C(=O)N(C)[C@H](C(=O)N[C@H]2Cc3cc(O)cc(c3)-c3ccc4c(c3)c(c(-c3nccnc3COC)n4CC)CC(C)(C)COC(=O)[C@@H]3CCCN(N3)C2=O)C(C)C)C1` [Example A085], the IC50 at KRAS G12D and on KRAS G12S was > 10 µM throughout.

With `CCn1c(-c2cnccc2COC)c2c3cc(ccc31)-c1cc(O)cc(c1)C[C@H](NC(=O)[C@H](C(C)C)N(C)C(=O)[C@H]1CCN(C(=O)C#CCN(C)C)C1)C(=O)N1CCC[C@H](N1)C(=O)OCC(C)(C)C2` [Example A088], the IC50 fell in the range of 1 to 10 µM at KRAS G12D and 0.1 to 1 µM at KRAS G12S.

Regarding `C=CC(=O)N1CC[C@H](C(=O)N(C)[C@H](C(=O)N[C@H]2Cc3cc(O)cc(c3)-c3ccc4c(c3)c(c(-c3cccnc3CN(C)C)n4CC)CC(C)(C)COC(=O)[C@@H]3CCCN(N3)C2=O)C(C)C)C1` [Example A092], the IC50 was > 10 µM at KRAS G12D and 1 to 10 µM on KRAS G12S.

For `C=CC(=O)N1CC[C@H](C(=O)N(C)[C@H](C(=O)N[C@H]2Cc3cc(O)cc(c3)-c3ccc4c(c3)c(c(-c3cccnc3COC)n4CC#N)CC(C)(C)COC(=O)[C@@H]3CCCN(N3)C2=O)C(C)C)C1` [Example A093], the IC50 was 1 to 10 µM at KRAS G12D and 0.1 to 1 µM on KRAS G12S.

With `C=CC(=O)N1CC[C@H](C(=O)N(C)[C@H](C(=O)N[C@H]2Cc3nc(cs3)-c3ccc4c(c3)c(c(-c3cccnc3COC)n4CC)CC(C)(C)COC(=O)[C@@H]3CCCN(N3)C2=O)C(C)C)C1` [Example A094], the IC50 at KRAS G12D and at KRAS G12S was > 10 µM throughout.

For the molecule `CCn1c(-c2cccnc2COC)c2c3cc(ccc31)-c1cc(O)cc(c1)C[C@H](NC(=O)[C@H](C(C)C)N(C)C(=O)C1CN(C(=O)C#CCN(C)C)C1)C(=O)N1CCC[C@H](N1)C(=O)OCC(C)(C)C2` [Example A097], the IC50 at KRAS G12D lay in the range of 1 to 10 µM; on KRAS G12S it was 0.1 to 1 µM.

As to `C=CC(=O)N1CC[C@H](C(=O)N(C)[C@H](C(=O)N[C@H]2Cc3cc(O)cc(c3)-c3ccc4c(c3)c(c(-c3ccc(C5CCN(C)CC5)nc3)n4CC)CC(C)(C)COC(=O)[C@@H]3CCCN(N3)C2=O)C(C)C)C1` [Example A098], the IC50 at KRAS G12D was > 10 µM; at KRAS G12S it was 1 to 10 µM.

Consider `C=CC(=O)N1CC[C@H](C(=O)N(C)[C@H](C(=O)N[C@H]2Cc3cc(O)cc(c3)-c3ccc4c(c3)c(c(-c3cnn(C)c3)n4CC)CC(C)(C)COC(=O)[C@@H]3CCCN(N3)C2=O)C(C)C)C1` [Example A099], for which the IC50 on KRAS G12D was > 10 µM; at KRAS G12S it was 1 to 10 µM.
